{"source": "patent US9642854B2", "about": "“Flavanoid compounds and process for preparation thereof” (Council of Scientific & Industrial Research, priority 2009, dated 2017)", "key": {"H. pylori [1]": {"test_system": "H. pylori", "assay": "Acid stability study (pH ~2.0, 2 h, then MIC/MBC by microbroth dilution)", "type": "cell-based, Helicobacter pylori", "settings": "for MBC / MIC: Helicobacter pylori", "description": "Details of experimental protocol are described under Experiment 7. MIC/MBC values were determined by microbroth dilution assay.\nA 100 μL stock of CPP-1, NMC-1, NMC-2 and CPP-3 (1-2 mg/mL) was treated with 20-30 μL of 0.12 NHCl to bring the pH of the solution to ^˜2.0, and kept at 25° C. for 2 h (Funatogawa et al., 2004). Such acid-treated samples were then serially diluted (2 fold) with medium in 96-well microtitre plates to determine the MIC and the MBC values by microbroth dilution assay as detailed under Experiment 3."}, "H. pylori [2]": {"test_system": "H. pylori", "assay": "Anti H. pylori screening by disc diffusion susceptibility assay", "type": "cell-based, Helicobacter pylori", "settings": "72 h; for Inhibition zone diameter (score): 100 and 200 mg/disc (so in the source)", "how_it_was_run": "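Clinical strains HP001, HP002 and ATCC 700392, 43504, 49503 (10^8 CFU/mL) spread on supplemented BHI agar; 5 mm discs loaded with 100 and 200 […] compound in ethanol or DMSO. Zones read after 72 h microaerophilic growth at 37 °C; scored + (10-20 mm), ++ (20-30 mm), +++ (>30 mm), Nil <10 mm.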"}, "gastric parietal cell": {"test_system": "gastric parietal cell", "assay": "Basal acid secretion in gastric parietal cell ([14C]-aminopyrine uptake ratio)", "type": "cell-based, rabbit", "description": "Dose-dependent inhibition of aminopyrine (AP) uptake ratio in parietal cell suspension after CPP-1 treatment was measured.\nParietal cells (PC) were isolated from New Zealand White rabbits (weighing ^˜2.5 kg) essentially according to Berglindh (1984) and as modified by Mazzeo et al. (1988). The PC preparations were nearly 90% pure and viable. The effect of CPP-1 on basal and histamine stimulated acid secretion in parietal cells was examined as follows. The PC suspension was incubated for 10 min at 37° C. with gentle stirring and continuous slow top gassing with oxygen. The [^14C]-aminopyrine (115 mCi/mmole) was added to the suspension at […], and incubation was continued for another 10 min. One-milliliter aliquot of PC (^˜5×10^6 cells) was added to various concentrations of CPP-1 in the presence and the absence of histamine (0.1 mM) and incubated for 20 min at 37° C. with slow shaking and oxygen top gassing. At the end of the incubation, the PC suspensions were centrifuged, supernatant carefully aspired off and the pellets solubilized in scintillation fluid containing Triton X-100. The resulting solution was counted in a liquid scintillation counter. The aminopyrine accumulation was determined as the ratio of intra- to extracellular aminopyrine according to Mazzeo et al. (1988)."}, "Swiss albino mice": {"test_system": "Swiss albino mice", "assay": "Acute toxicity evaluation in mice", "type": "in vivo", "settings": "up to 0.5 g/kg body weight orally, 15 days observation", "source_text": "Five animals of Swiss albino mice strain were used for this purpose. The dosage up to 0.5 g/kg body weight given orally per mice and the animals were kept for 15 days under observation. It was observed that the mice were not affected at the dose level of 0.5 g/kg body weight of CPP-1."}, "H. pylori ATCC 43504 [3]": {"test_system": "H. pylori ATCC 43504", "assay": "Transmission electron microscopy of morphological transformation", "type": "cell-based, Helicobacter pylori", "settings": "24 h", "source_text": "The morphological alteration of H. pylori cells (ATCC® 43504) exposed to various concentrations of CPP-1 was further examined using transmission electron microscopy (Dai et al., 2005). […] Samples were dehydrated, embedded in SPUR, sections cut and applied to copper grids. The grids were contrasted with uranyl acetate and lead citrate and the sections were examined on a transmission electron microscope."}, "H. pylori ATCC 43504 [4]": {"test_system": "H. pylori ATCC 43504", "assay": "Short time kill kinetics in shake culture at different pH", "type": "cell-based, Helicobacter pylori"}, "[5]": {"test_system": "H. pylori clinical strain HP001", "assay": "Acridine orange fluorescence microscopy of morphological transformation", "type": "cell-based, Helicobacter pylori", "settings": "24 h", "description": "Acridine orange fluorescence microscopic evidence is provided. The details of experimental procedures are provided under Experiment 9.\nFor the purpose of fluorescence staining, a bacterial smear was prepared, fixed with methanol for 2 min, stained with 0.1% acridine orange solution for 2-3 min, rinsed thoroughly with distilled water (Haqqani, 2001) and observed under fluorescence microscopy using 1-3 filter (emission wavelength 510 nm). The live organism appeared as orange color in the dark background and the non-viable cells as green (Shirai et al., 2000)."}, "H. pylori [6]": {"test_system": "H. pylori", "assay": "Time kill kinetic analyses in biphasic culture", "type": "cell-based, Helicobacter pylori"}}, "note": "“Also recorded” adds a separate entry of the source. Read-outs that look alike come from different tables or passages of the source."}
{"smiles": "O=c1cc(-c2ccccc2)oc2cc(OCCCCCCN3CCCCC3)cc(O)c12", "note": "[CPP-1, 5-Hydroxy-2-phenyl-7-(6-piperidin-1-yl-hexyloxy)-chromen-4-one]", "values": [{"measurement": "MBC", "setting": "H. pylori [1]; 2 h, pH ~2.0, 2 h, 25° C., 43504, read-out: MBC, Acid treated", "result": 25, "unit": "mg/mL"}, {"measurement": "MIC", "setting": "H. pylori [1]; 2 h, pH ~2.0, 2 h, 25° C., 43504, read-out: MIC, Acid treated", "result": 12.5, "unit": "mg/mL"}, {"measurement": "MBC", "setting": "H. pylori [1]; 2 h, pH ~2.0, 2 h, 25° C., HP001, read-out: MBC, Acid treated", "result": "< 12.5", "unit": "mg/mL"}, {"measurement": "MIC", "setting": "H. pylori [1]; 2 h, pH ~2.0, 2 h, 25° C., HP001, read-out: MIC, Acid treated", "result": 12.5, "unit": "mg/mL"}, {"measurement": "MBC", "setting": "H. pylori [1]; not acid treated, 43504, read-out: MBC, Control", "result": "< 6.25", "unit": "mg/mL"}, {"measurement": "MIC", "setting": "H. pylori [1]; not acid treated, 43504, read-out: MIC, Control", "result": 6.25, "unit": "mg/mL"}, {"measurement": "MBC", "setting": "H. pylori [1]; not acid treated, HP001, read-out: MBC, Control", "result": 12.5, "unit": "mg/mL"}, {"measurement": "MIC", "setting": "H. pylori [1]; not acid treated, HP001, read-out: MIC, Control", "result": 6.25, "unit": "mg/mL"}, {"measurement": "increase in MIC and MBC values upon exposure to acid", "setting": "H. pylori [1]; pH 2.0 for 2 hours", "result": "about 2 fold"}, {"measurement": "Inhibition zone diameter (score)", "setting": "H. pylori [2]; ATCC standard strain 43504", "result": "++ (20-30 mm as ^++)"}, {"measurement": "Inhibition zone diameter (score)", "setting": "H. pylori [2]; ATCC standard strain 49503", "result": "+++ (that of >30 mm as ^+++)"}, {"measurement": "Inhibition zone diameter (score)", "setting": "H. pylori [2]; ATCC standard strain 700392", "result": "++ (20-30 mm as ^++)"}, {"measurement": "zone of inhibition at 100 µg/disc", "setting": "H. pylori [2]; Helicobacter pylori, 100 and 200 μg/disc, majority of the strains, read-out: Activity class by inhibition zone diameter", "result": "> 30", "unit": "mm"}, {"measurement": "Inhibition zone diameter (score)", "setting": "H. pylori [2]; clinical strain HP001", "result": "++ (20-30 mm as ^++)"}, {"measurement": "Inhibition zone diameter (score)", "setting": "H. pylori [2]; clinical strain HP002", "result": "+++ (that of >30 mm as ^+++)"}, {"measurement": "IC50", "setting": "gastric parietal cell; Oryctolagus cuniculus, rabbit gastric parietal cell, aminopyrine uptake ratio", "result": "~0.005", "unit": "mg/mL"}, {"measurement": "fold less potent than omeprazole in inhibiting basal acid secretion", "setting": "gastric parietal cell; parietal cells", "result": "2-3 fold"}, {"measurement": "potency relative to cimetidine, basal acid secretion", "setting": "gastric parietal cell; parietal cells", "result": "much more potent than cimetidine"}, {"measurement": "mortality", "setting": "Swiss albino mice", "result": "did not show any mortality; also recorded: No mortality and behavioral abnormality was noted"}, {"measurement": "morphological alteration (transmission electron microscope)", "setting": "H. pylori ATCC 43504 [3]; 6.25 μg/mL", "result": "only few bacteria with intact shape and structure"}, {"measurement": "morphological alteration (transmission electron micrographs)", "setting": "H. pylori ATCC 43504 [3]; 6.25 or […]", "result": "induced swelling and vacuole like structures in the cytoplasm of H. pylori cells"}, {"measurement": "morphological alteration (transmission electron microscope)", "setting": "H. pylori ATCC 43504 [3]; […]", "result": "most cells were found to be progressively swollen and destroyed"}, {"measurement": "decrease of growth", "setting": "H. pylori ATCC 43504 [4]; 50 mg/mL (so in the source), pH 4.0, 5.0 and 6.0, short exposure", "result": 3, "unit": "log"}, {"measurement": "survival of bacteria", "setting": "H. pylori ATCC 43504 [4]; 50 mg/mL (so in the source), pH 7.2", "result": "the bacteria survived"}, {"measurement": "rate of killing as function of pH", "setting": "H. pylori ATCC 43504 [4]; 100 and 150 mg/mL (so in the source)", "result": "the rate of killing was found to increase as the pH of the media raised"}, {"measurement": "morphological alteration (fluorescence microscopy)", "setting": "[5]; 3.125 mg/mL (so in the source)", "result": "resembled almost like control with some deformation"}, {"measurement": "morphological alteration (fluorescence microscopy)", "setting": "[5]; 6.25 and […] (so in the source)", "result": "progressively deteriorating cell population leading to more of non-viable cells (green fluorescence) and coccid formation"}, {"measurement": "decrease in cell count within 36 h", "setting": "H. pylori [6]; ATCC 43504, 0.5×MIC (3.125 μg/mL)", "result": "f-log decrease in cell count"}, {"measurement": "time to complete killing", "setting": "H. pylori [6]; ATCC 43504, 1×MIC (6.25 μg/mL)", "result": "≤ 36", "unit": "h"}, {"measurement": "time at which killing/inhibition became evident", "setting": "H. pylori [6]; HP001, biphasic culture", "result": "≤ 6", "unit": "h"}, {"measurement": "killing at MIC dose (1×MIC)", "setting": "H. pylori [6]; HP001, up to 36 h", "result": "not high enough to produce total bactericidal activity"}]}
